Experimental data from ChEMBL document CHEMBL6109072, “Discovery of highly potent dual GSPT1/BRD4 degraders with anti-AML activity” (Eur J Med Chem, 2025).
Active and inactive are the calls of the source. The rule behind the calls is not given here.

Tests used:
MOLM-13 [1] = test: Antiproliferative activity against human MOLM-13 cells assessed as cell viability at 0.1 uM incubated for 3 days by CCK8 assay relative to control; format: functional; details: MOLM-13, 72 h, time 3 day, read-out: Activity
[2] = biological target: T1, Protein cereblon/Bromodomain-containing protein 4 (Homo sapiens, UniProt O60885+Q96SW2); test: PROTAC activity at CRBN/BRD4 in human MOLM-13 cells assessed as BRD4 degradation at 1 uM incubated for 24 hrs by Western blot analysis; format: cell-based
MOLM-13 [3] = test: Antiproliferative activity against human MOLM-13 cells incubated for 3 days by CCK8 assay; format: functional, cell-based; details: for IC50: MOLM-13, 72 h
SU-DHL-1 = test: Antiproliferative activity against human SU-DHL-1 cells incubated for 3 days by CCK8 assay; format: functional, cell-based; details: SU-DHL-1, 72 h
NB-4 = test: Antiproliferative activity against human NB4 cells incubated for 3 days by CCK8 assay; format: functional, cell-based; details: for IC50: NB-4, 72 h
[4] = Toxicity in IL2Rg-null NSG mouse xenografted with human MOLM-13 cells expressing GFP-Fluc assessed as hemolysis measured after 48 hrs
Raji = test: Antiproliferative activity against human Raji cells incubated for 3 days by CCK8 assay; format: functional, cell-based; details: 72 h
Daudi = test: Antiproliferative activity against human Daudi cells incubated for 3 days by CCK8 assay; format: functional, cell-based; details: 72 h
HL-60 = test: Antiproliferative activity against human HL-60 cells incubated for 3 days by CCK8 assay; format: functional, cell-based; details: for IC50: HL-60, 72 h
THP-1 = test: Antiproliferative activity against human THP-1 cells incubated for 3 days by CCK8 assay; format: functional, cell-based; details: for IC50: THP-1, 72 h
OCI-AML-3 = test: Antiproliferative activity against human OCI-AML-3 cells incubated for 3 days by CCK8 assay; format: functional, cell-based
KARPAS-299 = test: Antiproliferative activity against human KARPAS-299 cells incubated for 3 days by CCK8 assay; format: functional, cell-based
[5] = biological target: Protein cereblon/Eukaryotic peptide chain release factor GTP-binding subunit ERF3A (Homo sapiens, UniProt Q96SW2+P15170); test: PROTAC activity at CRBN/GSPT1 in human MOLM-13 cells assessed as GSPT1 degradation at 100 nM incubated for 6 hrs by Western blot analysis; format: cell-based
[6] = Toxicity in IL2Rg-null NSG mouse xenografted with human MOLM-13 cells expressing GFP-Fluc assessed as animal death measured after 48 hrs
[7] = biological target: T1, Protein cereblon/Bromodomain-containing protein 4; test: PROTAC activity at CRBN/BRD4 in human MOLM-13 cells assessed as BRD4 degradation at 100 nM incubated for 6 hrs by Western blot analysis; format: cell-based
[8] = biological target: T2, Protein cereblon/Eukaryotic peptide chain release factor GTP-binding subunit ERF3A (Mus musculus) (UniProt Q8C7D2+Q8R050); test: PROTAC activity at CRBN/GSPT1 in mouse A9 cells assessed as fold increase in translational readthrough activity at 0.8 to 20 uM incubated for 48 hrs by Western blot analysis relative to control; format: cell-based; details: dose 0.8-20 µM
[9] = biological target: T2, Protein cereblon/Eukaryotic peptide chain release factor GTP-binding subunit ERF3A (Mus musculus); test: PROTAC activity at CRBN/GSPT1 in mouse A9 cells harboring pCDH-BSD-M6/pIRES-GFluc assessed as GSPT1 degradation at 0.8 to 20 uM incubated for 48 hrs by Western blot analysis; format: cell-based; details: dose 0.8-20 µM
[10] = biological target: T2, Protein cereblon/Eukaryotic peptide chain release factor GTP-binding subunit ERF3A (Mus musculus); test: PROTAC activity at CRBN/GSPT1 in mouse A9 cells harboring pCDH-BSD-M6/pIRES-GFluc assessed as increase in translational readthrough activity at 0.8 to 20 uM incubated for 48 hrs by Western blot analysis; format: cell-based; details: dose 0.8-20 µM
A9 = test: Effect on eRF1 expression in mouse A9 cells harboring pCDH-BSD-M6/pIRES-GFluc at 0.8 to 20 uM incubated for 48 hrs by Western blot analysis; format: functional, cell-based; details: dose 0.8-20 µM

T1 sequence (Q96SW2 whole entry, looked up, other chains not shown): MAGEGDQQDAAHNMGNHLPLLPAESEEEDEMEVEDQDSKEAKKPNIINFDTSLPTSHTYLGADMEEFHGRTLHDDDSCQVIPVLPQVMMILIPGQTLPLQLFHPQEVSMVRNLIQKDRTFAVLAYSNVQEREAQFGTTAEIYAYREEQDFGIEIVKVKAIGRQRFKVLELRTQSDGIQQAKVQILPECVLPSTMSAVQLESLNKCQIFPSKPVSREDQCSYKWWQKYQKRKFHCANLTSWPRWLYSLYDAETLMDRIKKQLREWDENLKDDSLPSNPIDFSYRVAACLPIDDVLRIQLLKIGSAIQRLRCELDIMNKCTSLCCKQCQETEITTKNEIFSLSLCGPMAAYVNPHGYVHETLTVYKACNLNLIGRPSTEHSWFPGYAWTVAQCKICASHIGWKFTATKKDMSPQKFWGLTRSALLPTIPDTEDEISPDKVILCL
Chain of Protein cereblon/Eukaryotic peptide chain release factor GTP-binding subunit ERF3A (P15170 whole entry, looked up): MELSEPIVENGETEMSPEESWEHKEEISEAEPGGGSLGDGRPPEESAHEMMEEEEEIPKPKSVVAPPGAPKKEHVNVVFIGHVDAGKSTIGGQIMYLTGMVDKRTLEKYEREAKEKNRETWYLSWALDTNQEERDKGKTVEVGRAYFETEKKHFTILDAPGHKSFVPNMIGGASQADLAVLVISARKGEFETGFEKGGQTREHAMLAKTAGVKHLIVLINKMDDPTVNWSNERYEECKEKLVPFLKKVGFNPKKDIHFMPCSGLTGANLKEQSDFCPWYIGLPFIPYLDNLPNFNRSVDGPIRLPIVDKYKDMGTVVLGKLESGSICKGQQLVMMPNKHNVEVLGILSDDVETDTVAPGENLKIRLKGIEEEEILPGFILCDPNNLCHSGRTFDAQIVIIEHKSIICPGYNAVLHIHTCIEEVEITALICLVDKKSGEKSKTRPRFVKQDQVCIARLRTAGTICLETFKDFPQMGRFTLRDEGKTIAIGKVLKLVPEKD
Chain of Protein cereblon/Eukaryotic peptide chain release factor GTP-binding subunit ERF3A (Q96SW2 whole entry, looked up): as the sequence (Q96SW2 whole entry, looked up, other chains not shown) above
T2 sequence (Q8C7D2 whole entry, looked up): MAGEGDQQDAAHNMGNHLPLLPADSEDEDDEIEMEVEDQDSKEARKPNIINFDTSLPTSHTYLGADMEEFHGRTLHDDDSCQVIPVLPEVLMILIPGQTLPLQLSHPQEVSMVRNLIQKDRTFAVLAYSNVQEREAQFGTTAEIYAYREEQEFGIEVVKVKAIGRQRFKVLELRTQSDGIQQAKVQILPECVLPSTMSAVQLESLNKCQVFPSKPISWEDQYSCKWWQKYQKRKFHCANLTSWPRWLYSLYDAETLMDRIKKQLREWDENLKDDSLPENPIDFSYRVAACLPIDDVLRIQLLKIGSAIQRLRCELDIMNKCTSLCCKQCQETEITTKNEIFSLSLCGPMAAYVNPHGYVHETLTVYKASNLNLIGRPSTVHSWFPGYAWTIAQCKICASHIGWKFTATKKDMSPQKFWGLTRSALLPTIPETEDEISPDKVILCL
T2 sequence (Q8R050 whole entry, looked up): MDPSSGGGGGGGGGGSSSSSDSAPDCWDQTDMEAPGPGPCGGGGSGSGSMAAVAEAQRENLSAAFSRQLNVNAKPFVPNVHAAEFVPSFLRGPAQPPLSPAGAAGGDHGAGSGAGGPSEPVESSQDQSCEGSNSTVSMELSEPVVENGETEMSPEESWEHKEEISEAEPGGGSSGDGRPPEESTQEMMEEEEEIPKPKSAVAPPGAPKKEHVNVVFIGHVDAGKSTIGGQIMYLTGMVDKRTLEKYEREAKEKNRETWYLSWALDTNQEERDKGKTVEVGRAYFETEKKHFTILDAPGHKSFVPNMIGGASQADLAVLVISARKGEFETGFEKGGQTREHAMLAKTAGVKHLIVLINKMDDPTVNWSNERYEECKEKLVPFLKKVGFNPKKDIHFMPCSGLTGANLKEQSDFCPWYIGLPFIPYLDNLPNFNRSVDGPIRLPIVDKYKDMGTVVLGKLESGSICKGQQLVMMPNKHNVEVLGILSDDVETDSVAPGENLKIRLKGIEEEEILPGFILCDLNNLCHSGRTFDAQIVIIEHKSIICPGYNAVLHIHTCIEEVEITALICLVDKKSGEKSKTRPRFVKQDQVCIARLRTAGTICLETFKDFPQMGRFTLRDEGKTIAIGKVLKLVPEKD

Activity [2]	IC50 (MOLM-13 [3]) [µM]	Compound	viability at 0.1 µM (MOLM-13 [1]) [%]	IC50 (Raji) [µM]	IC50 (OCI-AML-3; Homo sapiens, OCI-AML-3, 72 h) [µM]	IC50 (KARPAS-299; Homo sapiens, KARPAS-299, 72 h) [µM]	also measured
Active	0.0372	Cc1sc2c(c1C)C(c1ccc(Cl)cc1)=N[C@@H](CC(=O)N1CCN(C3CCN(c4cccc5c4C(=O)N(C4CCC(=O)NC4=O)C5=O)CC3)CC1)c1nnc(C)n1-2 (some centres undefined)	19.3	–	–	–	–
–	–	Cc1sc2c(c1C)C(c1ccc(Cl)cc1)=N[C@@H](CC(=O)N1CC(N3CCN(c4cccc5c4C(=O)N(C4CCC(=O)NC4=O)C5=O)CC3)C1)c1nnc(C)n1-2 (some centres undefined)	124	–	–	–	–
–	–	Cc1sc2c(c1C)C(c1ccc(Cl)cc1)=N[C@@H](CC(=O)N1CCN(C3CN(c4cccc5c4C(=O)N(C4CCC(=O)NC4=O)C5=O)C3)CC1)c1nnc(C)n1-2 (some centres undefined)	66.2	–	–	–	–
–	0.0254	Cc1sc2c(c1C)C(c1ccc(Cl)cc1)=N[C@@H](CC(=O)N1CCC(N3CCN(c4ccc5c(c4)C(=O)N(C4CCC(=O)NC4=O)C5=O)CC3)CC1)c1nnc(C)n1-2 (some centres undefined)	7.55	–	–	–	–
Active	0.0338	Cc1sc2c(c1C)C(c1ccc(Cl)cc1)=N[C@@H](CC(=O)N1CC(CN3CCN(c4ccc5c(c4)C(=O)N(C4CCC(=O)NC4=O)C5=O)CC3)C1)c1nnc(C)n1-2 (some centres undefined)	7.45	–	–	–	–
–	–	Cc1sc2c(c1C)C(c1ccc(Cl)cc1)=N[C@@H](CC(=O)N1CCC(N3CCN(c4cccc5c4C(=O)N(C4CCC(=O)NC4=O)C5=O)CC3)CC1)c1nnc(C)n1-2 (some centres undefined)	72	–	–	–	–
–	–	Cc1sc2c(c1C)C(c1ccc(Cl)cc1)=N[C@@H](CC(=O)N1CCC(CN3CCN(c4cccc5c4C(=O)N(C4CCC(=O)NC4=O)C5=O)CC3)CC1)c1nnc(C)n1-2 (some centres undefined)	79.6	–	–	–	–
–	0.0742	Cc1sc2c(c1C)C(c1ccc(Cl)cc1)=N[C@@H](CC(=O)N1CC(N3CCN(c4ccc5c(c4)C(=O)N(C4CCC(=O)NC4=O)C5=O)CC3)C1)c1nnc(C)n1-2 (some centres undefined)	9.49	–	–	–	–
–	0.422	Cc1sc2c(c1C)C(c1ccc(Cl)cc1)=N[C@@H](CC(=O)NCCCCNc1cccc3c1C(=O)N(C1CCC(=O)NC1=O)C3=O)c1nnc(C)n1-2 (some centres undefined)	–	0.936	1.21	7.72	–
Active	0.0466	Cc1sc2c(c1C)C(c1ccc(Cl)cc1)=N[C@@H](CC(=O)N1CCN(CC3CCN(c4cccc5c4C(=O)N(C4CCC(=O)NC4=O)C5=O)CC3)CC1)c1nnc(C)n1-2 (some centres undefined)	18	–	–	–	–
–	0.0614	Cc1sc2c(c1C)C(c1ccc(Cl)cc1)=N[C@@H](CC(=O)N1CCC(CN3CCN(c4ccc5c(c4)C(=O)N(C4CCC(=O)NC4=O)C5=O)CC3)CC1)c1nnc(C)n1-2 (some centres undefined)	15.5	–	–	–	–
Active	0.0135	Cc1sc2c(c1C)C(c1ccc(Cl)cc1)=N[C@@H](CC(=O)N1CCN(CC3CN(c4ccc5c(c4)C(=O)N(C4CCC(=O)NC4=O)C5=O)C3)CC1)c1nnc(C)n1-2 (some centres undefined)	8.1	0.0821	0.0277	0.33	IC50 (SU-DHL-1): 0.035 µM; IC50 (NB-4): 0.00603 µM; IC50 (Daudi): 0.178 µM; IC50 (HL-60): 0.0191 µM; IC50 (THP-1): 0.032 µM; Activity [5]: Active; Activity [7]: Active
Active	0.0187	Cc1sc2c(c1C)C(c1ccc(Cl)cc1)=N[C@@H](CC(=O)N1CCN(C3CN(c4ccc5c(c4)C(=O)N(C4CCC(=O)NC4=O)C5=O)C3)CC1)c1nnc(C)n1-2 (some centres undefined)	7.24	–	–	–	–
–	–	Cc1sc2c(c1C)C(c1ccc(Cl)cc1)=N[C@@H](CC(=O)N1CC(CN3CCN(c4cccc5c4C(=O)N(C4CCC(=O)NC4=O)C5=O)CC3)C1)c1nnc(C)n1-2 (some centres undefined)	110	–	–	–	–
Active	0.0149	Cc1sc2c(c1C)C(c1ccc(Cl)cc1)=N[C@@H](CC(=O)N1CCN(CC3CN(c4cccc5c4C(=O)N(C4CCC(=O)NC4=O)C5=O)C3)CC1)c1nnc(C)n1-2 (some centres undefined)	11.7	0.605	0.0753	3.36	IC50 (SU-DHL-1): 0.117 µM; IC50 (NB-4): 0.0192 µM; IC50 (Daudi): 0.257 µM; IC50 (HL-60): 0.0637 µM; IC50 (THP-1): 0.103 µM; Activity [5]: Active; Activity [7]: Active

Compound	Activity [2]	IC50 (MOLM-13 [3]) [µM]	viability at 0.1 µM (MOLM-13 [1]) [%]	IC50 (Raji) [µM]	IC50 (OCI-AML-3; Homo sapiens, OCI-AML-3, 72 h) [µM]	IC50 (KARPAS-299; Homo sapiens, KARPAS-299, 72 h) [µM]	also measured
Cc1sc2c(c1C)C(c1ccc(Cl)cc1)=N[C@@H](CC(=O)N1CCN(C3CCN(c4ccc5c(c4)C(=O)N(C4CCC(=O)NC4=O)C5=O)CC3)CC1)c1nnc(C)n1-2 (some centres undefined)	Active	0.00607	6.8	0.0139	0.0173	0.0206	IC50 (SU-DHL-1): 0.0111 µM; IC50 (NB-4): 0.00426 µM; Activity [4]: Toxic; IC50 (Daudi): 0.0102 µM; IC50 (HL-60): 0.00738 µM; IC50 (THP-1): 0.0164 µM; Activity [5]: Active; Activity [6]: Toxic; Activity [7]: Active
Cc1sc2c(c1C)C(c1ccc(Cl)cc1)=N[C@@H](CC(=O)NCCNc1cccc3c1C(=O)N(C1CCC(=O)NC1=O)C3=O)c1nnc(C)n1-2 (some centres undefined)	Active	0.15	–	0.183	0.325	0.82	fold change (FC) [8]: 7; IC50 (SU-DHL-1): 0.195 µM; Activity [9]: Active; IC50 (NB-4): 0.0926 µM; Activity (NB-4; time 3.0 day): Active; IC50 (Daudi): 0.266 µM; IC50 (HL-60): 0.343 µM; Activity (HL-60; time 3.0 day): Active; Activity [10]: Active; Activity (MOLM-13 [3]; time 3.0 day): Active; IC50 (THP-1): 0.553 µM; Activity (THP-1; time 3.0 day): Active; Activity (A9): No effect; IC50 (OCI-AML-3; oci-aml-3): 0.381 µM; Activity (OCI-AML-3; time 3.0 day): Active; IC50 (KARPAS-299; karpas-299): 0.913 µM
O=C1CCC(N2Cc3cc(CNC(=O)C(F)(F)c4ccc(Cl)cc4)ccc3C2=O)C(=O)N1 (centres undefined)	Active	0.181	–	> 10	> 10	> 10	–
